According to patent publication US8071506B2, “Synergistic herbicidal composition containing florasulam for weed control in turf” (Dow AgroSciences LLC, priority 2009, dated 2011):

Columns and labels:
Assay in all cases: Field study of weed control in established turfgrass, percent control from visual weed cover
White Clover (TRFRE) = assay type: in vivo, Trifolium repens; conditions: for Observed percent control: Florasulam GR 15 g ai/ha
Procedure: (§1) Field studies were conducted in established turfgrass sites containing a natural population of target broadleaf weeds. Replicated trials, containing a minimum of three replications and having individual plots ranging in size from 25 to 50 ft. sq, were initiated in the early spring with turf and weeds still in dormancy or just beginning active growth. Studies containing two components (florasulam and dithiopyr or pendimethalin) were timed to coincide with typical preemergent crabgrass (Digitaria sp.) timing at the study location. Studies containing three components (florasulam, dithiopyr or pendimethalin, Trimec (2,4-D+dicamba+MCPP-p) or Scotts Plus 2 (2,4-D+MCPP-p) were timed as previous for the florasulam and dithiopyr or pendimethalin components followed by an application of Trimec or Scotts Plus 2 at peak dandelion bloom which occurs approximately six weeks after a typical preemergent application. Granule treatments were uniformly applied to individual plots using a common hand-shaker or shaker table method. Liquid applications were applied with a CO2 backpack sprayer calibrated to deliver 40 to 100 GPA at 40 to 60 PSI. Applications were generally made in the early morning when dew was present. Natural rainfall and supplemental irrigation were used to maintain healthy turf and active weed growth throughout the study period. Weed control evaluations were made by visually assessing percent weed cover of each weed species in each plot at the initiation of the study and at each evaluation interval, converting to percent control using the following formula: (1−(B/A))*100
(§2) A=percent weed cover at study initiation
(§3) B=percent weed at a specific evaluation interval after application
(§4) Using this method, control ranges occur between 0 and 100 percent where 0 corresponds to no control and 100 corresponds to complete kill. Percent cover of each weed species was made at approximately 2, 4 and 8 weeks after treatment.
(§5) The following equation was used to calculate the expected activity of mixtures containing two active ingredients, A and B: Expected=A+B−(A×B/100)
(§6) A=observed efficacy of active component A at the same concentration as used in the mixture.
(§7) B=observed efficacy of active component B at the same concentration as used in the mixture.
(§8) The following equation was used to calculate the expected activity of mixtures containing three active ingredients, A and B and C: Expected=A+B+C−((A×B)+(A×C)+(B×C)/100)+(A×B×C/10,000)
(§9) C=observed efficacy of active component C at the same concentration as used in the mixture.

Dandelion (TAROF) = assay type: in vivo, Taraxacum officinale
Procedure: as §1, §2, §3, §4, §5, §6, §7, §8, §9

[1] = test system: Buckhorn Plantain (PLALA); assay type: in vivo, Plantago lanceolata; conditions: 27 DAT in turf; Pendimethalin GR 2300 g ai/ha, Florasulam GR 15 g ai/ha
Procedure: as §1, with “Weed control evaluations were made by visually assessing percent weed cover of each weed species in each plot at the initiation of the study and at each evaluation interval, converting to percent control using the following formula: (1−(B/A))*100” left out

[2] = 28 DAT in turf, Dithiopyr GR 575 g ai/ha
[3] = 36 DAT in turf, Dithiopyr GR 575 g ai/ha
[4] = 62 DAT in turf, Dithiopyr GR 575 g ai/ha
[5] = 36 DAT in turf, Dithiopyr GR 575 g ai/ha, Florasulam GR 15 g ai/ha
[6] = 56 DAT in turf, Dithiopyr GR 575 g ai/ha, Florasulam GR 15 g ai/ha
[7] = 57 DAT in turf, Dithiopyr GR 575 g ai/ha, Florasulam GR 15 g ai/ha, Trimec EC 4 Pt/A
[8] = 58 DAT in turf, Dithiopyr 2EW 575 g ai/ha, Florasulam SC 15 g ai/ha
[9] = 59 DAT in turf, Dithiopyr GR 575 g ai/ha, Florasulam GR 15 g ai/ha, Trimec EC 4 Pt/A
[10] = 64 DAT in turf, Dithiopyr GR 575 g ai/ha, Florasulam GR 15 g ai/ha, Trimec EC 4 Pt/A
[11] = 91 DAT in turf, Dithiopyr GR 575 g ai/ha, Florasulam GR 15 g ai/ha
[12] = 55 DAT in turf, Pendimethalin GR 2300 g ai/ha, Scotts Plus 2 125 Lb/A
[13] = applications made at the preemergent herbicide application timing
[14] = 60 DAT in turf, Pendimethalin GR 2300 g ai/ha, Florasulam GR 15 g ai/ha, Scotts Plus 2 125 Lb/A

| SMILES | Observed percent control (White Clover (TRFRE); [2]) [%] | Observed percent control (White Clover (TRFRE); [3]) [%] | Observed percent control (White Clover (TRFRE); [4]) [%] | Observed percent control (Dandelion (TAROF); [5]) [%] | Observed percent control (Dandelion (TAROF); [6]) [%] | Observed percent control (Dandelion (TAROF); [7]) [%] | Observed percent control (Dandelion (TAROF); [8]) [%] | Observed percent control (Dandelion (TAROF); [9]) [%] | Observed percent control (Dandelion (TAROF); [10]) [%] | Observed percent control (Dandelion (TAROF); [11]) [%] | Observed percent control (White Clover (TRFRE); [12]) [%] | Control of white clover, in words (White Clover (TRFRE); [13]) | Observed percent control [1] [%] | Observed percent control (Dandelion (TAROF); [14]) [%] | Control of dandelion, in words (Dandelion (TAROF); [13]) |
| --- | --- | --- | --- | --- | --- | --- | --- | --- | --- | --- | --- | --- | --- | --- | --- |
| CSC(=O)c1c(C(F)F)nc(C(F)(F)F)c(C(=O)SC)c1CC(C)C [Dithiopyr, S,S′-dimethyl 2-(difluoromethyl)-4-(2-methylpropyl)-6-(trifluoromethyl)-3,5-pyridinedicarbothioate] | 0 | 0 | 0 | 0 | 29 | 21 | 21.7 | 27 | 0 | 19 |  |  |  |  |  |
| COc1ncc(F)c2nc(S(=O)(=O)Nc3c(F)cccc3F)nn12 [Florasulam, N-(2,6-difluorophenyl)-8-fluoro-5-methoxyl[1,2,4]triazolo[1,5-c]pyrimidine-2-sulfonamide] | 86.8 | 73 | 0 | 20 | 0 | 31 | 70 | 0 | 30 | 18 | 62.5 | effectively controls | 26.7 | 20.6 | effectively controls |
| CCC(CC)Nc1c([N+](=O)[O-])cc(C)c(C)c1[N+](=O)[O-] [Pendimethalin, N-(1-ethylpropyl)-3,4-dimethyl-2,6-dinitrobenzenamine] |  |  |  |  |  |  |  |  |  |  | 0 |  | 0 | 21 |  |
